“And” between values parts separate entries of the source, which are not always exact repeats. Equal entries are not always repeated.
Assays:
Total (β1+β2) β-ARs = test: β-AR binding assay (ICYP saturation) on heart ventricle membranes after i.v. injection; assay type: in vivo, rat (SHR); settings: cardiac ventricles of SHRs 4 days after treatment (1 mg/kg i.v.)
Experimental: (§1) Four days after intravenous injection of saline (n=6) or 1 mg/kg inverted ODN (n=6) or 2, 4, 10 or 18 days after injection of 1 mg/kg β1-AS-ODN (n=24), animals were euthanized, and membranes were prepared from heart ventricles as previously described (Baker and Pitha, 1982). For saturation experiments, 100 μg membrane protein was incubated in triplicate with 6 concentrations of [^125I](^−)-iodocyanopindolol (ICYP, NEN Life Science, 6.25 to 100 pmol/L) in a total volume of 250 μL containing 50 mmol/L Tris-HCl (pH 7.4), 5 mmol/L MgCl2 at 36° C. for 60 minutes. The nonspecific and β2-AR-binding levels were determined in the presence of 1 μmol/L (±)-alprenolol and 150 nmol/L CGP20712A (RBI), respectively. Then the reaction mixture was passed through Whatman (GF/B glass fiber filter using a Brandel harvester, and the bound radioactivity was counted for 1 min.
(§2) Four days after intravenous injection of saline (n=6) or 1 mg/kg inverted ODN (n=6), or 2, 4, 10, 18 days after injection of 1 mg/kg β1-AS-ODN (n=24), animals were sacrificed and membranes were prepared from heart ventricles as previously described (Baker and Pitha, 1982). For saturation studies, 100 μg membrane protein was incubated in triplicate with six concentrations of ^125I-(−)iodocyanopindolol (I-CYP, NEN Life Science, 6.25-100 pM) in a total volume of 250 μl containing 50 mM Tris-HCl (pH 7.4), 5 mM MgCl2 at 36° C. for 60 min. The nonspecific and β2-adrenoceptor binding levels were determined in the presence of 1 μM (±)-alprenolol and 150 nM CGP20712A (RBI), respectively. Then the reaction mixture was passed through Whatman GF/B glass fiber filter using Brandel harvester and the bound radioactivity was counted for one min.

β2-ARs = target: T1, β2-ARs (Rattus norvegicus, UniProt P10608); test: as above; assay type: in vivo, rat (SHR); settings: for Bmax, β2: cardiac ventricles of SHRs 4 days after treatment (1 mg/kg i.v.)
T1 construct: membranes were prepared from heart ventricles as previously described; from tissue; host or cells: heart ventricles of SHR
Experimental: as §1, §2

β1-ARs = target: T2, β1-ARs (Rattus norvegicus, UniProt P18090); test: as above; assay type: in vivo, rat (SHR); settings: for Bmax, β1: cardiac ventricles of SHRs 4 days after treatment (1 mg/kg i.v.)
T2 construct: membranes were prepared from heart ventricles as previously described; from tissue; host or cells: heart ventricles of SHR
Experimental: as §1, §2

[1] = Liver transaminases in plasma after repeated injections; assay type: in vivo, rat (SHR); settings: for ALT / AST: after repeated administration
Experimental: (§3) Safety profiles including liver transaminases, hematology, immune response and tissue pathology were investigated during three repeated injections of β1-AS-ODNs for extended periods of time.
Alanine aminotransferase (ALT) and aspartate aminotransferase (AST) are routinely used as a clinical index for liver function. Their levels increase substantially upon liver damage. SHR were treated with three repeated injections of β1-AS-ODN.

β1-AR mRNA = test: RT-PCR of β1-AR mRNA in myocardium; assay type: in vivo, Sprague-Dawley rats; settings: adjusted for GAPDH
Experimental: Total RNA was isolated from rat myocardium with the single step acid-guanidinum thiocyanate-phenol-chloroform method and quantified (Chomcznski and Sacchi, 1987). One μg of total RNA was reverse transcribed with oligo-dT (Promega) and M-MLV reverse transcriptase (Promega) at 37° C. for one hr. 1.5 μl of RT material was amplified with Taq DNA polymerase (Promega) using a primer pair specific to β1-AR:
PCR™ product was 432 base pairs. For PCR, 35 cycles were used at 95° C. for one minute, 60° C. for one minute, and 72° C. for one min. The RT-PCR™ amplified samples were visualized on 1.8% agarose gels using ethidium bromide. A primer pair of rat GAPDH was used as control:
For PCR™, 35 cycles were used at 95° C. for one min, 60° C. for one min, 72° C. for one min. PCR™ product was 504 base pairs. Relative intensity of bands of interest were analyzed by NSF-300G Scanner (Microtek) (Yang et al., 1998; Li et al., 1999).

β1-AR = test: β-adrenergic receptor binding assay on renal cortex membranes; assay type: in vivo, rat (SHR); settings: for decrease in Bmax of β1-ARs in renal cortex: charge ratio 2
Experimental: Four days after intravenous injection of saline (n=6) or 0.5 mg/kg inverted ODN (n=6) or 4, 10, 18 and 40 days after injection of 0.5 mg/kg β1-AS-ODN (n=24), animals were euthanized, and membranes were prepared from the renal cortex of the left kidneys as previously described (Baker and Pitha, 1982). For saturation studies, 100 μg membrane protein was incubated in triplicate with 6 concentrations of [^125](−)iodocyanopindolol (ICYP, NEN Life Science, 6.25 to 100 pmol/L) in a total volume of 250 μL containing 50 mmol/L Tris-HCl (pH 7.4) and 5 mmol/L MgCl2 at 36° C. for 60 min. The nonspecific and β2-adrenergic receptor binding levels were determined in the presence of 1 μmol/L (±)-alprenolol and […] CGP20712A (RBI), respectively. Then the reaction mixture was passed through a Whatman GF/B glass fiber filter with a Brandel harvester, and the bound radioactivity was counted for 1 min.

MDA (lipid peroxidation) = test: MDA levels in myocardium after ischemia-reperfusion; assay type: in vivo, Sprague-Dawley rats; settings: pretreatment before ischemia-reperfusion; vs saline
Experimental: Malondialdehyde (MDA) levels in myocardium were measured in duplicate by a modification of the method of Ohkawa et al., (1979). Briefly, the ventricular tissues were homogenized. The assay mixture consisted of 0.1 ml of the tissue homogenate, 0.4 ml of 0.9% NaCl, 0.5 ml of 3% sodium dodecylsulfate, 3 ml of TBA (thiobarbituric acid reagent, containing equal parts of 0.8% aqueous thiobarbituric acid and acetic acid) and was heated for 75 min at 95° C. Thereafter, 1 ml cold 0.9% NaCl was added to the mixture, which was cooled and extracted with 5 ml n-butanol. After centrifugation at 3,000 rpm for 15 min, the butanol phase was assayed spectrophotometrically at 532 nm. Tetramethoxypropane (in amounts of 0, 0.1, 0.2, 0.4, 0.8, 1.0 nmole) served as external standard. MDA levels in myocardium were expressed in μmol/g tissue.

[2] = Hematology after repeated injections; assay type: in vivo, rat (SHR); settings: for MPV: after repeated administration
Experimental: as §3
Hematological parameters were measured after three repeated injections of β1-AS-ODN. There was no change in total leukocyte count (WBC), platelet count, hematocrit and mean platelet volume (MPV) among three groups (Table 6).

T1 sequence (P10608 whole entry): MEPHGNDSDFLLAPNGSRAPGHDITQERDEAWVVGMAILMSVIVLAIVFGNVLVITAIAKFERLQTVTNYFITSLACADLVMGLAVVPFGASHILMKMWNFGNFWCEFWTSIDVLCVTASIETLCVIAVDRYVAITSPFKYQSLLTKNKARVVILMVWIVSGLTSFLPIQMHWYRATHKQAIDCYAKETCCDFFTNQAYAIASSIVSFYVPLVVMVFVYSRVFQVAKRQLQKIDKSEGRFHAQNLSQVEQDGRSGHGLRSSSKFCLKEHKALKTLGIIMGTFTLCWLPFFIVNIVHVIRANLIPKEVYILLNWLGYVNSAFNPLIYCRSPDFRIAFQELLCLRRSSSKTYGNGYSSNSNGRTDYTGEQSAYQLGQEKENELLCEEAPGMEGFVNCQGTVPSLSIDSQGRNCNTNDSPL
T2 sequence (P18090 whole entry): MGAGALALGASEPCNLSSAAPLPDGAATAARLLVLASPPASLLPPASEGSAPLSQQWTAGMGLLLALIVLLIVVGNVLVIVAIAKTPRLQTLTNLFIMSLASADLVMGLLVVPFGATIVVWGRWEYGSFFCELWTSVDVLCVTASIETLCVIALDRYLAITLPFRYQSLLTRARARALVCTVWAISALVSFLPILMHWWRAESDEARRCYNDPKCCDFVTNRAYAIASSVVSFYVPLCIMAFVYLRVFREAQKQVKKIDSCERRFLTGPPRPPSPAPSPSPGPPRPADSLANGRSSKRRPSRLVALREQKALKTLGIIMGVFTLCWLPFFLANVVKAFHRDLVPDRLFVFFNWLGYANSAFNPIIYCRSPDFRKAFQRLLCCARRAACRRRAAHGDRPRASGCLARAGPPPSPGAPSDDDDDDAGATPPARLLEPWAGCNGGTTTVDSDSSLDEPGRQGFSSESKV

5′-AGCCGTACCCGCGCC-3′ (phosphorothioate backbone, further chemistry not given here) [Inverted ODN, 15-mer inverted ODN control, reference compound]
Bmax, Total (β1+β2) (Total (β1+β2) β-ARs): 26.3 ± 3.0 fmol/mg | Bmax, β2 (β2-ARs): 8.7 ± 0.5 fmol/mg | effect on either β-AR subtype (β1-ARs; SHR cardiac ventricles, 1 mg/kg i.v., 4 days): no effect | Bmax, β1 (β1-ARs): 18.1 ± 2.3 fmol/mg | ALT [1]: 30.5 ± 3.8 unit/ml | AST [1]: 83.0 ± 8.3 unit/ml | increase of mRNA for β1-AR in myocardium (β1-AR mRNA): not significantly affected | effect on either β-AR subtype in renal cortex (β1-AR; 0.5 mg/kg i.v., 4 days): no effect | increase in MDA levels in the myocardium (MDA (lipid peroxidation)): did not affect | MPV [2]: 7.2 ± 0.20 fL | WBC ([2]; rat, in vivo): 5.75 ± 1.15 10^3/mm^3 | hematocrit ([2]; rat, in vivo): 46.0 ± 0.1% | platelet ([2]; rat, in vivo): 706 ± 28 10^3/mm^3

5′-CCGCGCCCATGCCGA-3′ (phosphorothioate backbone, further chemistry not given here) [β1-AS-ODN, 15-mer antisense ODN targeted to the AUG start codon of rat β1-AR mRNA]
Bmax, Total (β1+β2) (Total (β1+β2) β-ARs): 19.8 ± 1.8 fmol/mg | change in Bmax of β2-ARs (β2-ARs; SHR hearts, single i.v. 1 mg/kg): no significant change | Bmax, β2 (β2-ARs): 9.9 ± 0.5 fmol/mg | β1/β2 subtype ratio in the ventricles (β1-ARs; after treatment, from ≈70/30): ≈ 50/50 and 50/50 | Bmax, β1 (β1-ARs): 10.0 ± 1.2 fmol/mg | duration of significant reduction of β1-AR density in SHR hearts (β1-ARs; single i.v. 1 mg/kg with cationic liposomes 1:2.5): 18 days | drop in cardiac β1-AR density (β1-ARs; single i.v. 1 mg/kg with cationic liposomes 1:2.5, day 10): 33% | drop in cardiac β1-AR density (β1-ARs; single i.v. 1 mg/kg with cationic liposomes 1:2.5, day 18): 29% | plasma concentrations of ALT and AST vs control groups ([1]; after each of three repeated injections): no significant difference | ALT [1]: 25.7 ± 1.1 unit/ml | AST [1]: 74.0 ± 3.7 unit/ml | increase of mRNA for β1-AR in myocardium (β1-AR mRNA): attenuated the increase | affinity of either subtype in renal cortex (β1-AR; 0.5 mg/kg i.v.): not affected | decrease in Bmax of β1-ARs in renal cortex (β1-AR; 0.5 mg/kg i.v., day 4): 35% | decrease in Bmax of β1-ARs in renal cortex (β1-AR; 0.5 mg/kg i.v., day 10): 29% | decrease in Bmax of β1-ARs in renal cortex (β1-AR; 0.5 mg/kg i.v., day 18): 23% | Bmax of β1-ARs in renal cortex (β1-AR; 0.5 mg/kg i.v., day 40): completely restored | duration of reduction of β1-AR levels in renal cortex (β1-AR; summary statement): 18 days | reduction of β1-AR levels in renal cortex (β1-AR; summary statement): ≈ 30% | increase in MDA levels in the myocardium (MDA (lipid peroxidation)): attenuated the increase | MPV [2]: 6.93 ± 0.08 fL | WBC ([2]; rat, in vivo): 5.48 ± 0.41 10^3/mm^3 | hematocrit ([2]; rat, in vivo): 46.2 ± 0.63% | platelet ([2]; rat, in vivo): 685 ± 12 10^3/mm^3 | total leukocyte count (WBC), platelet count, hematocrit and MPV ([2]; rat, in vivo): no change

Reference: US6489307B1, “Antisense compositions targeted to β1-adrenoceptor-specific mRNA and methods of use” (University of Florida, priority 1998, dated 2002)
